Consider 10 compounds from PubChem BioAssay (NCI).

Where “and” joins values, the source holds several entries; their conditions need not be identical. Equal values may be shown once.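 1) Cells in 96-well plates. 2) Compound, 48 h, 5 concentrations. 3) Linear interpolation between surrounding doses. 4) Unreached endpoint = highest concentration. GI50 marks 50% less growth. At the TGI there is no net growth.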

Some test systems named below: TK-10 renal; CCRF-CEM leukemia; U251 CNS; SF-295 CNS; MDA-MB-435; MOLT-4 leukemia; PC-3 prostate; NCI-H226 lung; IGROV1 ovarian; EKVX NSCLC.
Test in all cases: NCI tumour cell line growth inhibition, 48 h

Take `COc1cccc(NC(=O)c2sc3nc4c(cc3c2N)C(=O)CCC4)c1`: the GI50 in the assay with TK-10 renal was more than 100 µM; in the assay on CCRF-CEM leukemia it was 89.3 nM; in the assay with U251 CNS, 0.158 µM; in the assay on SF-295 CNS it was 0.0818 µM; in the assay with MDA-MB-435 it was 0.0221 µM; in the assay on MOLT-4 leukemia it was 0.553 µM. Further, the GI50 is 0.11 µM in the assay on PC-3 prostate, 2.18 µM with NCI-H226 lung and 0.381 µM in the assay with IGROV1 ovarian. Further, the TGI in the assay on TK-10 renal was more than 100 µM; in the assay on CCRF-CEM leukemia, more than 100 µM; in the assay with U251 CNS, 10.4 µM; in the assay on SF-295 CNS it was more than 100 µM; with MDA-MB-435 it was 0.0548 µM; in the assay with MOLT-4 leukemia, more than 100 µM. The TGI in the assay with PC-3 prostate, with NCI-H226 lung and in the assay on IGROV1 ovarian was more than 100 µM in each case.

Turning to `N#CCN/C=C\C(=O)c1ccc(Cl)cc1`, the GI50 was 31.1 µM in the assay on TK-10 renal; 398 nM with CCRF-CEM leukemia; 70.7 µM in the assay on U251 CNS; 28 µM with SF-295 CNS; 30.3 µM in the assay with MDA-MB-435; 21.3 µM in the assay on MOLT-4 leukemia. Moreover, the GI50 with PC-3 prostate is 29.5 µM; with NCI-H226 lung it was 30 µM; with IGROV1 ovarian it was 31 µM. For the same compound, the TGI in the assay on TK-10 renal, with CCRF-CEM leukemia, in the assay on U251 CNS, in the assay with SF-295 CNS, with MDA-MB-435 and in the assay on MOLT-4 leukemia was more than 100 µM throughout. Also, the TGI in the assay on PC-3 prostate, in the assay with NCI-H226 lung and in the assay on IGROV1 ovarian was more than 100 µM each time.

In the case of `COc1ccc(/C=N\Nc2ccc([N+](=O)[O-])cn2)cc1OC`, the GI50 in the assay on TK-10 renal is 3.18 µM; with CCRF-CEM leukemia, more than 100000 nM; with U251 CNS, 3.56 µM; with SF-295 CNS, more than 100 µM; in the assay on MDA-MB-435, more than 100 µM; with MOLT-4 leukemia, more than 100 µM. Moreover, the GI50 in the assay with PC-3 prostate was more than 100 µM; in the assay with NCI-H226 lung, 8.39 µM; with EKVX NSCLC it was more than 100 µM. Besides, the TGI is 7.73 µM with TK-10 renal; more than 100 µM in the assay with CCRF-CEM leukemia; 74.2 µM in the assay with U251 CNS; more than 100 µM in the assay on SF-295 CNS; more than 100 µM in the assay on MDA-MB-435; more than 100 µM with MOLT-4 leukemia. Moreover, the TGI in the assay with PC-3 prostate, in the assay with NCI-H226 lung and with EKVX NSCLC was more than 100 µM each time.

With `O=c1c(Cl)c(Cl)c(=O)c2sc3cc(Cl)ccc3[nH]c1=2`, the TGI is more than 100 µM in the assay with TK-10 renal; more than 100 µM in the assay with U251 CNS; more than 100 µM in the assay on SF-295 CNS; more than 100 µM in the assay on MDA-MB-435; 14.5 µM in the assay on MOLT-4 leukemia; more than 100 µM with PC-3 prostate. Besides, the TGI in the assay with NCI-H226 lung was more than 100 µM; in the assay with EKVX NSCLC, 28.7 µM; in the assay on IGROV1 ovarian, more than 100 µM.

In the case of `COc1cccc(/C=C/C(=O)c2ccc(Cl)cc2Cl)c1`, the GI50 in the assay with TK-10 renal was 12.8 µM; with U251 CNS it was 9.19 µM; in the assay with SF-295 CNS, 28.2 µM; in the assay on MDA-MB-435, 11.1 µM; with MOLT-4 leukemia, 0.773 µM; in the assay on PC-3 prostate, 8.92 µM. The GI50 in the assay with NCI-H226 lung was 9.79 µM; with EKVX NSCLC, 13.5 µM; in the assay with IGROV1 ovarian, 15 µM. In addition, the TGI is more than 50 µM with TK-10 renal; more than 50 µM in the assay with U251 CNS; more than 50 µM in the assay with SF-295 CNS; 28.6 µM with MDA-MB-435; more than 50 µM with MOLT-4 leukemia; 20.9 µM in the assay on PC-3 prostate. In addition, the TGI with NCI-H226 lung is 25.7 µM; with EKVX NSCLC, 25.8 µM; with IGROV1 ovarian, more than 50 µM.

On to `COc1cc(CNc2ccccc2C(=O)N2CCN(C(=O)c3cc(-c4cc(OC)c(OC)c(OC)c4)n4nc(-c5ccccc5)cc4n3)CC2)cc(OC)c1OC`, for which the GI50 with TK-10 renal is 6.85 µM; in the assay on U251 CNS, 3.37 µM; in the assay on MOLT-4 leukemia, 3.32 µM; in the assay on PC-3 prostate, 2.35 µM; in the assay with NCI-H226 lung, 4.44 µM; with EKVX NSCLC it was 4.96 µM. The GI50 with IGROV1 ovarian was 7.73 µM. Further, the TGI in the assay with TK-10 renal was more than 100 µM; in the assay on U251 CNS it was 70.3 µM; in the assay with MOLT-4 leukemia, more than 100 µM; in the assay on PC-3 prostate it was more than 100 µM; in the assay on NCI-H226 lung, 59.4 µM; with EKVX NSCLC, more than 100 µM. The TGI with IGROV1 ovarian was more than 100 µM.

`CO[C@H](C(=O)[C@@H](O)[C@@H](C)O)[C@@H]1Cc2cc3cc(OC4CC(OC5CC(O)C(O)C(C)O5)C(O)C(C)O4)c(C)c(O)c3c(O)c2C(=O)[C@H]1OC1CC(OC2CC(OC3CC(C)(O)C(O)C(C)O3)C(O)C(C)O2)C(O)C(C)O1` (stereo not given in full): the GI50 with TK-10 renal is 0.0792 µg/mL and 0.288 µg/mL; in the assay with CCRF-CEM leukemia, 0.0386 µg/mL and 0.0314 µg/mL; in the assay with U251 CNS, 0.016 µg/mL and 0.0132 µg/mL; in the assay with SF-295 CNS, 0.0253 µg/mL; in the assay with MDA-MB-435, 0.0222 µg/mL and 0.0246 µg/mL and 1.25 µM; with MOLT-4 leukemia it was 0.0223 µg/mL. Further, the GI50 with NCI-H226 lung was 0.0179 µg/mL and 0.0115 µg/mL; in the assay on EKVX NSCLC, 0.042 µg/mL and 0.0335 µg/mL; with IGROV1 ovarian it was 0.0472 µg/mL and 0.0289 µg/mL.

Regarding `O=Cc1cccc2c1Oc1c(cccc1C(=O)O)S2`, the TGI with TK-10 renal is more than 100 µM; in the assay with U251 CNS, more than 100 µM; in the assay with SF-295 CNS, more than 100 µM; in the assay with MDA-MB-435, more than 100 µM; in the assay on MOLT-4 leukemia it was 68.1 µM; in the assay on PC-3 prostate, more than 100 µM. Also, the TGI with NCI-H226 lung, in the assay with EKVX NSCLC and in the assay on IGROV1 ovarian was more than 100 µM each time.

Regarding `CCN(CC)CCCNC(=O)c1c2c(n3ccccc13)C(=O)c1ncccc1C2=O`, the GI50 in the assay on CCRF-CEM leukemia was 2210 nM; with U251 CNS, 1.37 µM; in the assay with SF-295 CNS, 1.07 µM; in the assay on MDA-MB-435, 0.224 µM; in the assay with MOLT-4 leukemia, 0.604 µM; in the assay with PC-3 prostate it was 0.616 µM. In addition, the GI50 in the assay on EKVX NSCLC is 1.31 µM. Besides, the TGI in the assay with CCRF-CEM leukemia was more than 100 µM; with U251 CNS it was 2.89 µM; in the assay on SF-295 CNS, 6.29 µM; with MDA-MB-435, 0.506 µM; in the assay with MOLT-4 leukemia, more than 100 µM; in the assay with PC-3 prostate, 6.65 µM. The TGI in the assay with EKVX NSCLC came out at 3.11 µM.

As for `CCn1c(-c2cc3ccccc3cc2O)nn(C(=O)c2c(Cl)cccc2Cl)c1=S`, the GI50 in the assay with CCRF-CEM leukemia is 27100 nM; with U251 CNS, 19.5 µM; in the assay on SF-295 CNS, 34.6 µM; in the assay with MDA-MB-435, more than 50 µM; in the assay with MOLT-4 leukemia, 34.6 µM; in the assay on PC-3 prostate, more than 50 µM. The GI50 in the assay with NCI-H226 lung is 14.2 µM; in the assay on EKVX NSCLC it was more than 50 µM; with IGROV1 ovarian, 6.63 µM. For the same compound, the TGI with CCRF-CEM leukemia, with U251 CNS, with SF-295 CNS, in the assay on MDA-MB-435, in the assay on MOLT-4 leukemia and in the assay on PC-3 prostate was more than 50 µM each time. Besides, the TGI was 40.2 µM in the assay with NCI-H226 lung, more than 50 µM in the assay with EKVX NSCLC and 16.6 µM in the assay on IGROV1 ovarian.
